Nine compounds from ChEMBL document CHEMBL1142291, “A novel bicyclic hexapeptide, RA-XVIII, from Rubia cordifolia: structure, semi-synthesis, and cytotoxicity” (Bioorg Med Chem Lett, 2008) can be followed below.

Usually IC50 stands for the concentration needed to halve the response being measured. Read a low IC50 as greater potency.

≈ marks a conversion by molar mass, not a printed value.

This assay concerns P388. Nature of the assay: Cytotoxicity against mouse P388 cells. Type of assay: functional, cell-based.
In turn, `COc1ccc(C[C@H]2C(=O)N[C@@H](C)C(=O)N(C)[C@H]3Cc4ccc(cc4)Oc4cc(cc([N+](=O)[O-])c4O)C[C@@H](C(=O)N[C@H](C)C(=O)N[C@@H](C)C(=O)N2C)N(C)C3=O)cc1` had an IC50 of 0.014 µg/mL (≈ 0.0175 µM).

As for `COc1ccc(C[C@H]2C(=O)N[C@@H](C)C(=O)N(C)[C@H]3Cc4ccc(cc4)Oc4cc(cc([N+](=O)[O-])c4OC)C[C@@H](C(=O)N[C@H](C)C(=O)N[C@@H](C)C(=O)N2C)N(C)C3=O)cc1`, the IC50 stood at 0.01 µg/mL (≈ 0.0123 µM).

The compound `COc1ccc(C[C@H]2C(=O)N[C@@H](C)C(=O)N(C)[C@H]3Cc4ccc(cc4)Oc4cc(c([N+](=O)[O-])cc4OC)C[C@@H](C(=O)N[C@H](C)C(=O)N[C@@H](C)C(=O)N2C)N(C)C3=O)cc1` yielded an IC50 of 0.056 µg/mL (≈ 0.0686 µM). This IC50 lies about 5.6-fold higher than the previous one.

For the compound `COc1ccc(C[C@H]2C(=O)N[C@@H](C)C(=O)N(C)[C@H]3Cc4ccc(cc4)Oc4cc(c(O)cc4OC)C[C@@H](C(=O)N[C@H](C)C(=O)N[C@@H](C)C(=O)N2C)N(C)C3=O)cc1`, it took 0.093 µg/mL (≈ 0.118 µM) to reach half-maximal inhibition (IC50). This IC50 is about 1.7-fold higher than that of the compound before.

Compound `COc1ccc(C[C@H]2C(=O)N[C@@H](C)C(=O)N(C)[C@H]3Cc4ccc(cc4)Oc4cc(ccc4OC)C[C@@H](C(=O)N[C@H](C)C(=O)N[C@@H](C)C(=O)N2C)N(C)C3=O)cc1` returned an IC50 of 0.003 µg/mL (≈ 0.00389 µM).

With `COc1ccc(C[C@H]2C(=O)N[C@@H](C)C(=O)N(C)[C@H]3Cc4ccc(cc4)Oc4cc(cc(O)c4OC)C[C@@H](C(=O)N[C@H](C)C(=O)N[C@@H](C)C(=O)N2C)N(C)C3=O)cc1`, half-maximal inhibition (IC50) was put at 0.012 µg/mL (≈ 0.0153 µM).

`COc1ccc(C[C@H]2C(=O)N[C@@H](C)C(=O)N(C)[C@H]3Cc4ccc(cc4)Oc4cc(cc(N)c4OC)C[C@@H](C(=O)N[C@H](C)C(=O)N[C@@H](C)C(=O)N2C)N(C)C3=O)cc1`: the IC50 is 0.0071 µg/mL (≈ 0.00903 µM).

Compound `COc1ccc(C[C@H]2C(=O)N[C@@H](C)C(=O)N(C)[C@H]3Cc4ccc(cc4)Oc4cc(c(N)cc4OC)C[C@@H](C(=O)N[C@H](C)C(=O)N[C@@H](C)C(=O)N2C)N(C)C3=O)cc1` showed an IC50 of 0.7 µg/mL (≈ 0.891 µM).

Consider `COc1ccc(C[C@H]2C(=O)N[C@@H](C)C(=O)N(C)[C@H]3Cc4ccc(cc4)Oc4cc(ccc4O)C[C@@H](C(=O)N[C@H](C)C(=O)N[C@@H](C)C(=O)N2C)N(C)C3=O)cc1` [DEOXYBOUVARDIN], for which 0.014 µg/mL (≈ 0.0185 µM) corresponded to half-maximal inhibition (IC50). This IC50 is about 50-fold lower than that of the compound before.
